Measurements reported in BigSolDB 2.1.

COC(=O)C1=C(C)NC(C)=C(C(=O)OCC(C)C)C1c1ccccc1[N+](=O)[O-] (stereo not given)
solubility (mole fraction)
Settings	278.15 K	283.15 K	288.15 K	293.15 K	298.15 K	303.15 K	308.15 K	313.15 K	318.15 K
in acetonitrile	0.00826	0.00998	0.0121	0.0145	0.0173	0.0204	0.0241	0.0281	0.0329
in ethyl acetate	0.016	0.0185	0.0214	0.0248	0.0286	0.0324	0.037	0.0419	0.0477
in isopropanol	0.00483	0.00578	0.00688	0.0081	0.00956	0.0111	0.0129	0.015	0.0172
in n-propanol	0.00367	0.00448	0.00553	0.00673	0.00811	0.0097	0.0115	0.0136	0.0162
in water	3.79e-06	5.04e-06	6.75e-06	8.67e-06	1.17e-05	1.51e-05	1.94e-05	2.47e-05	3.09e-05
